Results on two compounds are retold here after PMC9095706, “TMEM16 scramblases thin the membrane to enable lipid scrambling” (Nature Communications, 2022).

The target of one experiment is T1, afTMEM16 (Aspergillus fumigatus, UniProt Q4WA18).
T1 construct: gene AFUA_4G02970; expressed in S. cerevisiae from pDDGFP2, His tag removed with TEV protease, digitonin-purified homodimer, in MSP1E3 nanodiscs or proteoliposomes
T1 sequence (Q4WA18 1-735): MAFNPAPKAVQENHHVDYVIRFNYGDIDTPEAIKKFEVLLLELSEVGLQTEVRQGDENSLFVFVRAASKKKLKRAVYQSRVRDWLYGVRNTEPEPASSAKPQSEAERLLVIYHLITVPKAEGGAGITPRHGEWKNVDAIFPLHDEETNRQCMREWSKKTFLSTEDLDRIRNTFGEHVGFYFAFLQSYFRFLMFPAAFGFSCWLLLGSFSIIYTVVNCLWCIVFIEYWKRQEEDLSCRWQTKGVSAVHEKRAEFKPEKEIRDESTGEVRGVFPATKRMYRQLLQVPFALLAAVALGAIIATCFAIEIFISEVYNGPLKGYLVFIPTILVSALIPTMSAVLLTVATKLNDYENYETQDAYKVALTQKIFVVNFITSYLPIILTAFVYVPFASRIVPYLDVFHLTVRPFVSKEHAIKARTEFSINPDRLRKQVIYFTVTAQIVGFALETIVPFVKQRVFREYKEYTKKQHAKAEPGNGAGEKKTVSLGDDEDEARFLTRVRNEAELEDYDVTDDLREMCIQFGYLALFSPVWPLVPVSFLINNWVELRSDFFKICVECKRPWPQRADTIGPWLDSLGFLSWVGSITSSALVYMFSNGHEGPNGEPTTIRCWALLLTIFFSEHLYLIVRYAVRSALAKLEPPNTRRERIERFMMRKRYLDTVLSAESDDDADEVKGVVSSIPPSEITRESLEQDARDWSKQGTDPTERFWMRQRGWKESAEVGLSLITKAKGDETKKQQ
The experiment is described as follows: cryo-EM structure ([…] Å) in MSP1E3 nanodiscs. It counts as binding. As to conditions: 0.5 mM Ca2+; 7:3 DOPC:DOPG nanodisc; lipids D4 and D5 built as PG, near dimer interface and lipid pathway; models started from POPG (PGW) and truncated to density.

Experiment [1] concerns the target afTMEM16 scramblase from Aspergillus fumigatus (Aspergillus fumigatus). In words: cryo-EM structure; afTMEM16 reconstituted in lipid nanodiscs (MSP1E3 or MSP2N2; C14, C18 or C22 lipids, 7 PC:3 PG), 50 mM HEPES pH 8.0, 150 mM KCl with 0.5 mM CaCl2 or 5 mM EDTA; homodimer, C2 symmetric reconstructions.

What is called stoichiometry N is the number of molecules, sites or subunits per partner or assembly.

Take `CCCCCCCC/C=C\CCCCCCCC(=O)OC[C@H](COP(=O)(O)OCC(O)CO)OC(=O)CCCCCCC/C=C\CCCCCCCC` (mixture of isomers) [1,2-dioleoyl-sn-glycero-3-phospho-(1′-rac-glycerol)]: the “cryo-EM structure (2.3 Å) in MSP1E3 nanodiscs” value on afTMEM16 is reported as “The downward slope of the OL starts at D5, a well-defined PG lipid”.

Compound “afTMEM16 scramblase from Aspergillus fumigatus (natural protein)” came in with a stoichiometry N in experiment [1] of 2.
